Data as given in patent US11236106B2, “Cycloalkane-1,3-diamine derivative” (Daiichi Sankyo Company, Limited, priority 2018, dated 2022).
pIC50: −log10 of the molar value. Counter-ions that a name gives are not always drawn.

Target: T1, menin and MLL (menin, Flag tagged; biotinylated MLL1 peptide 1-46aa) (Homo sapiens, UniProt O00255)
T1 sequence (O00255 1-610): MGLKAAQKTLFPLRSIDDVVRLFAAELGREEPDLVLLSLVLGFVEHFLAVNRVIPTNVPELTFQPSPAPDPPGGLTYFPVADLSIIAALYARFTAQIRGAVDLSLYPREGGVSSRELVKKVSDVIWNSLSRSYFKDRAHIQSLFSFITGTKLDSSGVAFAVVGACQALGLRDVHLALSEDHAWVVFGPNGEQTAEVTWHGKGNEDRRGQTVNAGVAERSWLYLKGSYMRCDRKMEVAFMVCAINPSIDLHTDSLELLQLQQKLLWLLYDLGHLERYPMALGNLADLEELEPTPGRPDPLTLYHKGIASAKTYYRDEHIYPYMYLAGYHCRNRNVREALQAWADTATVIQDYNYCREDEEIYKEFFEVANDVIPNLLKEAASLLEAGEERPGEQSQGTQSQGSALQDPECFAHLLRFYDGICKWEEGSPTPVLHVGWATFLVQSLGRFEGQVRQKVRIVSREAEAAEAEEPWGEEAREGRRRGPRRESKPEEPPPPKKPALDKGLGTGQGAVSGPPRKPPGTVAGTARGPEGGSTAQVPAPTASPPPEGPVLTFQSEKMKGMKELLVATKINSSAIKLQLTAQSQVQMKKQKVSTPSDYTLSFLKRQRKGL
Assay: biochemical
Conditions: not given

Structure (SMILES) | pIC50
COc1nc(N(C)[C@H]2C[C@@H](NCc3ccc(-c4cc(OC)c(OC)cn4)cc3)C[C@H]2O)c2cc(CC(F)(F)F)sc2n1 [Example 116, (1R,2S,4R)-4-({[4-(4,5-dimethoxypyridin-2-yl)phenyl]methyl}amino)-2-{[2-methoxy-6-(2,2,2-trifluoroethyl)thieno[2,3-d]pyrimidin-4yl](methyl)amino}cyclopentan-1-ol hydrochloride] | 9.00
CCOc1cc(-c2ccc(CN[C@H]3C[C@@H](O)[C@@H](N(C)c4ncnc5sc(CC(F)(F)F)cc45)C3)cc2)cnc1OC [Example 80, (1R,2S,4R)-4-({[4-(5-ethoxy-6-methoxypyridin-3-yl)phenyl]methyl}amino)-2-{methyl[6-(2,2,2-trifluoroethyl)thieno[2,3-d]pyrimidin-4-yl]amino}cyclopentan-1-ol hydrochloride] | 7.81
COc1cncc(-c2ccc(CN[C@@H]3C[C@H](N(C)c4ncnc5sc(CC(F)(F)F)cc45)C[C@H]3O)cc2)c1 [Example 50, (1R,2R,4S)-2-({[4-(5-methoxypyridin-3-yl)phenyl]methyl}amino)-4-{methyl[6-(2,2,2-trifluoroethyl)thieno[2,3-d]pyrimidin-4-yl]amino}cyclopentan-1-ol hydrochloride] | 8.01

Same assay, conditions: IC50, binding inhibitory activity between menin and MLL, AlphaLISA; 1 nM menin, 10 nM biotinylated MLL1 peptide

Structure (SMILES) | pIC50
CN(c1ncnc2sc(CC(F)(F)F)cc12)[C@H]1C[C@@H](NCc2cccc(-c3cccnc3)c2)C[C@H]1O [Example 124, (1R,2S,4R)-2-{methyl[6-(2,2,2-trifluoroethyl)thieno[2,3-d]pyrimidin-4-yl]amino}-4-({[3-(pyridin-3-yl)phenyl]methyl}amino)cyclopentan-1-ol hydrochloride] | 6.74
COc1cc(-c2ccc(CN[C@H]3C[C@@H](O)[C@@H](N(C)c4ncnc5sc(CC(F)(F)F)cc45)C3)cc2)nnc1Cl [Example 84, (1R,2S,4R)-4-({[4-(6-chloro-5-methoxypyridazin-3-yl)phenyl]methyl}amino)-2-{methyl[6-(2,2,2-trifluoroethyl)thieno[2,3-d]pyrimidin-4-yl]amino}cyclopentan-1-ol hydrochloride] | 8.57
COc1nc(N(C)[C@H]2C[C@@H](NCc3ccc(-c4cnc(N(C)C)c(OC)c4)cc3)C[C@H]2O)c2cc(CC(F)(F)F)sc2n1 [Example 117, (1R,2S,4R)-4-[({4-[6-(dimethylamino)-5-methoxypyridin-3-yl]phenyl}methyl)amino]-2-{[2-methoxy-6-(2,2,2-trifluoroethyl)thieno[2,3-d]pyrimidin-4-yl](methyl)amino}cyclopentan-1-ol hydrochloride] | 8.85
COc1cc(-c2ccc(CN[C@H]3C[C@@H](O)[C@@H](N(C)c4ncnc5sc(CC(F)(F)F)cc45)C3)c(F)c2)cnc1OC [Example 76, (1R,2S,4R)-4-({[4-(5,6-dimethoxypyridin-3-yl)-2-fluorophenyl]methyl}amino)-2-{methyl[6-(2,2,2-trifluoroethyl)thieno[2,3-d]pyrimidin-4-yl]amino}cyclopentan-1-ol hydrochloride] | 8.07
COc1cc(-c2ccc(CN[C@H]3C[C@@H](O)[C@@H](N(C)c4ncncc4Oc4ccc(F)cc4-c4cncnc4C(C)C)C3)cc2)nnc1OC [Example 100, (1R,2S,4R)-4-({[4-(5,6-dimethoxypyridazin-3-yl)phenyl]methyl}amino)-2-[(5-{4-fluoro-2-[4-(propan-2-yl)pyrimidin-5-yl]phenoxy}pyrimidin-4-yl)(methyl)amino]cyclopentan-1-ol hydrochloride] | 8.60
COc1cc(-c2ccc(CN[C@H]3CC[C@H](OC)[C@@H](Nc4ncnc5sc(CC(F)(F)F)cc45)C3)cc2)nnc1OC [Example 126, (1S,3S,4S)—N^1-{[4-(5,6-dimethoxypyridazin-3-yl)phenyl]methyl}-4-methoxy-N^3-[6-(2,2,2-trifluoroethyl)thieno[2,3-d]pyrimidin-4-yl]cyclohexane-1,3-diamine Hydrochloride] | 8.12
COc1cc(-c2ccc(CN[C@H]3C[C@@H](O)[C@@H](N(C)c4ncnc5sc(CC(F)(F)F)cc45)C3)cc2)cnc1Cl [Example 65, (1R,2S,4R)-4({[4-(6-chloro-5-methoxypyridin-3-yl)phenyl]methyl}amino)-2{methyl[6-(2,2,2-trifluoroethyl)thieno[2,3-d]pyrimidin-4-yl]amino}cyclopentan-1-ol hydrochloride] | 8.60
CNc1nc(N(C)[C@H]2C[C@@H](NCc3ccc(-c4cnc(OC)c(OC)c4)cc3)C[C@H]2O)c2cc(CC(F)(F)F)sc2n1 [Example 73, (1R,2S,4R)-4-({[4-(5,6-dimethoxypyridin-3-yl)phenyl]methyl}amino)-2-{methyl[2-(methylamino)-6-(2,2,2-trifluoroethyl)thieno[2,3-d]pyrimidin-4-yl]amino}cyclopentan-1-ol hydrochloride] | 8.19

Same assay, conditions: cell free IC50 (nM), 1 nM menin, 10 nM biotinylated MLL1 peptide, AlphaLISA

Structure (SMILES) | IC50
FC(F)(F)Cc1cc2c(N[C@@H]3CCC[C@H](NCc4ccc(Oc5ccccc5)cc4)C3)ncnc2s1 [Example 41, (1S,3R)-N^1-[(4-phenoxyphenyl)methyl]-N^3-[6-(2,2,2-trifluoroethyl)thieno[2,3-d]pyrimidin-4-yl]cyclohexane-1,3-diamine hydrochloride] | 472 nM
CN(c1nc(N)nc2sc(CC(F)(F)F)cc12)[C@H]1C[C@@H](NCc2ccc(-n3ccnc3)cc2)C[C@H]1O [Example 21, (1R,2S,4R)-2-{[2-amino-6-(2,2,2-trifluoroethyl)thieno[2,3-d]pyrimidin-4-yl](methyl)amino}-4-({[4-(1H-imidazol-1-yl)phenyl]methyl}amino)cyclopentan-1-ol Hydrochloride] | 7 nM
FC(F)(F)Cc1cc2c(N[C@@H]3CCC[C@H](NCc4ccc(-c5ccncc5)cc4)C3)ncnc2s1 [Example 40, (1S,3R)-N^1-{[4-(pyridin-4-yl)phenyl]methyl}-N^3-[6-(2,2,2-trifluoroethyl)thieno[2,3-d]pyrimidin-4-yl]cyclohexane-1,3-diamine hydrochloride] | 265 nM
CN(c1ncnc2sc(CC(F)(F)F)cc12)[C@@H]1CC[C@H](NCc2ccc(-c3ccc(-c4ccc(Cl)nc4)nc3)cc2)C1 [Example 13, (1R,3S)—N^3-{[4-(6′-chloro[2,3′-bipyridine]-5-yl)phenyl]methyl}-N^1-methyl-N^1-[6-(2,2,2-trifluoroethyl)thieno[2,3-d]pyrimidin-4-yl]cyclopentane-1,3-diamine] | 7.6 nM
Cc1ncc(-c2ccc(CN[C@H]3CC[C@@H](N(C)c4ncnc5sc(CC(F)(F)F)cc45)C3)cc2)cc1OC(F)F [Example 58, (1R,3S)-N^3-({4-[5-(difluoromethoxy)-6-methylpyridin-3-yl]phenyl}methyl)-N^1-methyl-N^1-[6-(2,2,2-trifluoroethyl)thieno[2,3-d]pyrimidin-4-yl]cyclopentane-1,3-diamine hydrochloride] | 15.2 nM
CN(c1ncnc2sc(CC(F)(F)F)cc12)[C@@H]1CC[C@H](NCc2ccc(N3CCc4ccccc43)cc2)C1 [Example 56, (1R,3S)-N^3-{[4-(2)-3-dihydro-1H-indol-1-yl)phenyl]methyl}-N^1-methyl-N^1-[6-(2,2,2-trifluoroethyl)thieno[2,3-d]pyrimidin-4-yl]cyclopentane-1,3-diamine hydrochloride] | 43.6 nM
CN(c1ncnc2ccc(CC(F)(F)F)cc12)[C@@H]1CC[C@H](NCc2ccc(O)cc2)C1 [Example 5, 4-({[(1S,3R)-3-{methyl[6-(2,2,2-trifluoroethyl)quinazolin-4-yl]amino}cyclopentyl]amino}methyl)phenol Hydrochloride] | 856 nM
